Reference: patent publication US20230089073A1 (Carmot Therapeutics, Inc., priority 2021, published 2023)

Target: T1, human GLP-1 receptor (Homo sapiens, UniProt P43220)
T1 construct: expressed in transfected cells
Experiment: GLP-1R cAMP Assay
Type: cell-based
Conditions: cAMP accumulation in CHO cells stably overexpressing the human GLP-1 receptor; 30 min treatment; HitHunter cAMP kit; read-out: EC50
In short: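 Luminescent enzyme-complementation detection of cAMP, read after cell lysis and overnight incubation, with dose-response curve fitting. Stimulation lasted 30 min, using 20-point triplicate dosing on CHO cells (10,000 per well) stably overexpressing human GLP-1R.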

T1 sequence (P43220 24-463): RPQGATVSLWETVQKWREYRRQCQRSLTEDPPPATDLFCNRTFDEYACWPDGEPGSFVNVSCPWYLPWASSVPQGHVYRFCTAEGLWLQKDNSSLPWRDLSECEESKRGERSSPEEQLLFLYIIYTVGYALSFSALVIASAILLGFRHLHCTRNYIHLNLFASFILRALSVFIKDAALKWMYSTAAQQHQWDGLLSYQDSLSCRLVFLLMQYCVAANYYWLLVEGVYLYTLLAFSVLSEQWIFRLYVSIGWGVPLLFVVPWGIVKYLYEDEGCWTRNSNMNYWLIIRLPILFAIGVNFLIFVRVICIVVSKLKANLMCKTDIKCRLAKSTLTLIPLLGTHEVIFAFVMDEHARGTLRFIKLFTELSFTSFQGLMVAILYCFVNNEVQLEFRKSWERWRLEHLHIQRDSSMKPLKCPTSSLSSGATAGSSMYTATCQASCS

| SMILES | EC50 [nM] |
| --- | --- |
| Cc1ccc(C(C)c2cccc(C(=O)N3CCN(Cc4nc5ccc(C(=O)O)cc5n4C[C@@H]4CCO4)CC3)c2)c(Cl)c1 (stereo partly drawn) [Example 112, 2-((4-(3-(1-(2-Chloro-4-methylphenyl)ethyl)benzoyl)piperazin-1-yl)methyl)-1-(((S)-oxetan-2-yl)methyl)-1H-benzo[d]imidazole-6-carboxylic acid] | 50 to 500 |
| Cc1ccc(N(C)c2cncc(C(=O)N3CCN(Cc4nc5ccc(C(=O)O)cc5n4C[C@@H]4CCO4)CC3)c2)c(Cl)c1 [Compound 85, 2-[(4-{5-[(2-chloro-4-methylphenyl)(methyl)amino]pyridine-3-carbonyl}piperazin-1-yl)methyl]-1-{[(2S)-oxetan-2-yl]methyl}-1H-1,3-benzodiazole-6-carboxylic acid] | 50 to 500 |
| Cc1c(Cl)cccc1OCc1ccc(CN2CCN(Cc3nc4ccc(C(=O)O)cc4n3C[C@@H]3CCO3)CC2)o1 [Compound 8, 2-{[4-({5-[(3-chloro-2-methylphenoxy)methyl]furan-2-yl}methyl)piperzin-1-yl]methyl}-1-{[(2S)-oxetan-2-yl]methyl}-1H-1,3-benzodiazole-6-carboxylic acid] | 50 to 500 |
| CCn1cncc1Cn1c(CN2CCN(C(=O)c3cccc(Nc4ccc(C)cc4Cl)c3)CC2)nc2ccc(C(=O)O)cc21 [Compound 58, 2-[(4-{3-[(2-chloro-4-methylphenyl)amino]benzoyl}piperazin-1-yl)methyl]-1-[(1-ethyl-1H-imidazol-5-yl)methyl]-1H-1,3-benzodiazole-6-carboxylic acid] | > 500 |
| CCn1cncc1Cn1c(CN2CCN(C(=O)c3cccc(CNc4ccc(C)cc4Cl)c3)CC2)nc2ccc(C(=O)O)cc21 [Compound 79, 2-{[4-(3-{[(2-chloro-4-methylphenyl)amino]methyl}benzoyl)piperazin-1-yl]methyl}-1-[(1-ethyl-1H-imidazol-5-yl)methyl]-1H-1,3-benzodiazole-6-carboxylic acid] | > 500 |
| O=C(O)c1ccc2nc(CN3CCN(C(=O)c4ccc(COc5cccc(Cl)c5)o4)CC3)n(C[C@@H]3CCO3)c2c1 [Compound 40, 2-[(4-{5-[(3-chlorophenoxy)methyl]furan-2-carbonyl}piperazin-1-yl)methyl]-1-{[(2S)-oxetan-2-yl]methyl}-1H-1,3-benzodiazole-6-carboxylic acid] | > 500 |
| Cc1ccc(Oc2cccc(C(=O)N3CCN(Cc4nc5ccc(C(=O)O)cc5n4C[C@@H]4CCO4)CC3)c2)cc1 [Compound 5, 2-({4-[3-(4-methylphenoxy)benzoyl]piperazin-1-yl}methyl)-1-{[(2S)-oxetan-2-yl]methyl}-1H-1,3-benzodiazole-6-carboxylic acid] | > 500 |
| CCn1cncc1Cn1c(CN2CCC(Oc3cccc(COc4ccc(Cl)cc4Cl)n3)CC2)nc2ccc(C(=O)O)cc21 [Compound 199, 2-{[4-({6-[(2,4-dichlorophenoxy)methyl]pyridin-2-yl}oxy)piperidin-1-yl]methyl}-1-[(1-ethyl-1H-imidazol-5-yl)methyl]-1H-1,3-benzodiazole-6-carboxylic acid] | < 50 |
| CCn1cnnc1Cn1c(CN2CCC(Oc3ccnc(COc4ccc(Cl)cc4F)c3)CC2)nc2ccc(C(=O)O)cc21 [Compound 316] | < 50 |
| N#Cc1cc(Cl)ccc1OCc1cc(OC2CCN(Cc3nc4ccc(C(=O)O)cc4n3Cc3ccno3)CC2)ccn1 [Compound 241, 2-{[4-({2-[(4-chloro-2-cyanophenoxy)methyl]pyridin-4-yl}oxy)piperidin-1-yl]methyl}-1-[(1,2-oxazol-5-yl)methyl]-1H-1,3-benzodiazole-6-carboxylic acid] | < 50 |
| Cc1ccc(N(C)c2cccc(CC3=CCN(Cc4nc5ccc(C(=O)O)cc5n4C[C@@H]4CCO4)CC3)c2)c(Cl)c1 [Compound 117, 2-{[4-({3-[(2-chloro-4-methylphenyl)(methyl)amino]phenyl}methyl)-1,2,3,6-tetrahydropyridin-1-yl]methyl}-1-{[(2S)-oxetan-2-yl]methyl}-1H-1,3-benzodiazole-6-carboxylic acid] | 50 to 500 |
| CCn1cncc1Cn1c(CN2CCC(CO)(Cc3ccnc(COc4ccc(Cl)cc4Cl)c3)CC2)nc2ccc(C(=O)O)cc21 [Example 150, 2-((4-((2-((2,4-Dichlorophenoxy)methyl)pyridin-4-yl)methyl)-4-(hydroxymethyl)piperidin-1-yl)methyl)-1-((1-ethyl-1H-imidazol-5-yl)methyl)-1H-benzo[d]imidazole-6-carboxylic acid] | < 50 |
| O=C(O)c1ccc2nc(CN3CCc4[nH]c5c(OCc6ccc(Cl)cc6F)cccc5c4C3)n(C[C@@H]3CCO3)c2c1 [Example 90, (S)-2-((6-((4-Chloro-2-fluorobenzyl)oxy)-1,3,4,5-tetrahydro-2H-pyrido[4,3-b]indol-2-yl)methyl)-1-(oxetan-2-ylmethyl)-1H-benzo[d]imidazole-6-carboxylic acid] | > 500 |
| O=C(O)c1ccc2nc(CN3CCC(Oc4ccnc(COc5ccc(Cl)cc5Cl)c4)CC3)n(C[C@@H](O)CCO)c2c1 [Compound 227, 2-{[4-({2-[(2,4-dichlorophenoxy)methyl]pyridin-4-yl}oxy)piperidin-1-yl]methyl}-1-[(2S)-2,4-dihydroxybutyl]-1H-1,3-benzodiazole-6-carboxylic acid] | < 50 |
| N#Cc1cc(Cl)ccc1OCc1cccc(CC2CCN(Cc3nc4ccc(C(=O)O)cc4n3C[C@H]3CCOC3)CC2)c1 [Compound 158, 2-{[4-({3-[(4-chloro-2-cyanophenoxy)methyl]phenyl}methyl)piperidin-1-yl]methyl}-1-{[(3R)-oxolan-3-yl]methyl}-1H-1,3-benzodiazole-6-carboxylic acid] | < 50 |
| CCn1cncc1Cn1c(CN2CCC(Oc3cccc(COc4ncc(Cl)cc4F)c3)CC2)nc2ccc(C(=O)O)cc21 [Compound 294] | 50 to 500 |

Further lines, results first:

| EC50 [nM] | SMILES |
| --- | --- |
| < 50 | Cc1cc(C(=O)O)cc2c1nc(CN1CC[C@H](Oc3ccnc(COc4ccc(C#N)cc4F)c3)C[C@@H]1C)n2C[C@@H]1CCO1 [Compound 503, 2-{[(2S,4S)-4-({2-[(4-cyano-2-fluorophenoxy)methyl]pyridin-4-yl}oxy)-2-methylpiperidin-1-yl]methyl}-4-methyl-1-{[(2S)-oxetan-2-yl]methyl}-1H-1,3-benzodiazole-6-carboxylic acid] |
| < 50 | CCn1cncc1Cn1c(CN2CCC(C)(Cc3ccnc(COc4ccc(Cl)cc4Cl)c3)CC2)nc2ccc(C(=O)O)cc21 [Example 163, 2-((4-((2-((2,4-Dichlorophenoxy)methyl)pyridin-4-yl)methyl)-4-methylpiperidin-1-yl)methyl)-1-((1-ethyl-1H-imidazol-5-yl)methyl)-1H-benzo[d]imidazole-6-carboxylic acid] |
| < 50 | N#Cc1ccc(OCc2nccc(O[C@H]3CCN(Cc4nc5ccc(C(=O)O)cc5n4C[C@@H]4CCO4)[C@@H](CF)C3)n2)c(F)c1 [Example 490, 2-(((2R,4S)-4-((2-((4-Cyano-2-fluorophenoxy)methyl)pyrimidin-4-yl)oxy)-2-(fluoromethyl)piperidin-1-yl)methyl)-1-(((S)-oxetan-2-yl)methyl)-1H-benzo[d]imidazole-6-carboxylic acid] |
| < 50 | N#CCC1(Cn2c(CN3CCC(Oc4ccnc(COc5ccc(F)cc5C#N)n4)CC3)nc3c(F)cc(C(=O)O)cc32)CC1 [Compound 349] |
| < 50 | O=C(O)c1ccc2nc(CN3CCC(Oc4ccnc(COc5ccc(Cl)cc5F)c4)CC3)n(Cc3cnco3)c2c1 [Compound 265, 2-{[4-({2-[(4-chloro-2-fluorophenoxy)methyl]pyridin-4-yl}oxy)piperidin-1-yl]methyl}-1-[(1,3-oxazol-5-yl)methyl]-1H-1,3-benzodiazole-6-carboxylic acid] |
| < 50 | C[C@H]1C[C@@H](Oc2cccc(COc3ccc(C#N)cc3F)c2)CCN1Cc1nc2c(F)cc(C(=O)O)cc2n1C[C@@H]1CCO1 [Compound 320] |
| < 50 | CCn1cncc1Cn1c(CN2CCN(C(=O)c3cnc(COc4ccc(Cl)cc4Cl)o3)C[C@@H]2C)nc2ccc(C(=O)O)cc21 [Compound 256, 2-{[(2S)-4-{2-[(2,4-dichlorophenoxy)methyl]-1,3-oxazole-5-carbonyl}-2-methylpiperazin-1-yl]methyl}-1-[(1-ethyl-1H-imidazol-5-yl)methyl]-1H-1,3-benzodiazole-6-carboxylic acid] |
| < 50 | N#Cc1ccc(OCc2nc(OC3CCN(Cc4nc5ccc(C(=O)O)cc5n4C[C@@H]4CCO4)CC3)ccc2F)c(F)c1 [Compound 347] |
| < 50 | CCn1cncc1Cn1c(CN2CCC(Cc3ccnc(COc4ccc(Cl)cc4Cl)c3)CC2)nc2ccc(C(=O)O)cc21 [Example 128, 2-((4-((2-((2,4-Dichlorophenoxy)methyl)pyridin-4-yl)methyl)piperidin-1-yl)methyl)-1-((1-ethyl-1H-imidazol-5-yl)methyl)-1H-benzo[d]imidazole-6-carboxylic acid] |
| < 50 | CCn1cncc1Cn1c(CN2CCC(Cc3cnc(COc4ccc(Cl)cc4Cl)o3)CC2)nc2ccc(C(=O)O)cc21 [Compound 124, 2-{[4-({2-[(2,4-dichlorophenoxy)methyl]-1,3-oxazol-5-yl}methyl)piperidin-1-yl]methyl}-1-[(1-ethyl-1H-imidazol-5-yl)methyl]-1H-1,3-benzodiazole-6-carboxylic acid] |
| < 50 | N#Cc1ccc(OCc2nccc(OC3CCN(Cc4nc5c(F)cc(C(=O)O)cc5n4C[C@@H]4CCO4)CC3)n2)c(F)c1 [Compound 328] |
| < 50 | C[C@H]1C[C@@H](Oc2ccnc(COc3ccc(C#N)cc3Cl)c2)CCN1Cc1nc2ccc(C(=O)O)cc2n1C[C@@H]1CCO1 [Compound 366] |
| < 50 | Cc1cc(C(=O)O)cc2c1nc(CN1CCC(Oc3ccnc(COc4ccc(C#N)cc4F)n3)CC1)n2C[C@@H]1CCO1 [Compound 484, 2-{[4-({2-[(4-cyano-2-fluorophenoxy)methyl]pyrimidin-4-yl}oxy)piperidin-1-yl]methyl}-4-methyl-1-{[(2S)-oxetan-2-yl]methyl}-1H-1,3-benzodiazole-6-carboxylic acid] |
